Data on seven compounds can be found in patent US11076595B2, “1-(n,n-disubstituted carbamoyl) 4-(substituted sulfonyl)triazolin-5-one derivative, 4-(n,n-disubstituted carbamoyl) 1-(substituted sulfonyl)triazolin-5-one derivative, and herbicide containing said derivative as active ingredient” (HOKKO CHEMICAL INDUSTRY CO., LTD., priority 2017, dated 2021).

Molecules are shown by their SMILES.

Holding throughout (assay type): in vivo
For experiment [1], the system named is crabgrass. The experiment in a line: Test Example 14: herbicidal effect test by foliage treatment in upland field. The settings on record: 7 days after sowing, 120 g/10a, 14 days after treatment. In outline:
(§1)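 Emulsifiable concentrate, water-diluted, is applied post-emergence to 7-day-old sowings in field soil at 120 g active ingredient per 10 are. The weed suppression rate derives from average dry weights versus untreated controls, measured 14 days later.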

Experiment [2] deals with Chenopodium album. The description is as above. As to conditions: 7 days after sowing, 120 g/10a, 14 days after treatment. A digest of the protocol:
as §1

Experiment [3] relates to Amaranthus viridis. The experiment is described as above. The settings on record: 7 days after sowing, 120 g/10a, 14 days after treatment. A digest of the protocol:
as §1

The subject of experiment [4] is Echinochloa crus-galli. Described as above. As to conditions: 7 days after sowing, 120 g/10a, 14 days after treatment. A digest of the protocol: as §1
Experiment [5] has as its system Monochoria vaginalis. The experiment in a line: Test Example 11: herbicidal effect test by soil treatment in paddy field. As to conditions: 120 g/10a active ingredient, 14 days after treatment. A digest of the protocol:
(§2)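 Pre-emergence flooded-paddy test: the water-diluted emulsifiable concentrate, 120 g active ingredient per 10 are, was dripped into pots immediately after seeding, with water held at about 3 cm. Two replicate pots per rate; 14 days after treatment, plant dry weight versus untreated pots gave the weed suppression rate.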

In experiment [6] the test system is Scirpus juncoides. The description is as above. The settings on record: 120 g/10a active ingredient, 14 days after treatment. A digest of the protocol: as §2
In experiment [7] the test system is Lindernia pyxidaria. The description is as above. As to conditions: 120 g/10a active ingredient, 14 days after treatment. A digest of the protocol:
as §2

For experiment [8], the system named is Echinochloa crus-galli. The experiment is described as above. As to conditions: 120 g/10a active ingredient, 14 days after treatment. A digest of the protocol:
as §2

The test system of experiment [9] is crabgrass. The experiment in a line: Test Example 13: herbicidal effect test by soil treatment in upland field. As to conditions: 120 g/10a, 14 days after treatment. In outline: (§3)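 Weed suppression rate (%) computed at 14 days as 1 minus treated/untreated mean dry weight, times 100, with two replicates per concentration. Emulsifiable concentrate diluted in water was applied at 120 g a.i. per 10 are (100 liter per 10 are) onto soil surface one day post-sowing of 20 seeds each in 36 cm^2 pots of alluvial soil.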

Experiment [10] concerns Chenopodium album. The experiment is described as above. The settings on record: 120 g/10a, 14 days after treatment. A digest of the protocol:
as §3

Experiment [11] has as its system Amaranthus viridis. The description is as above. The settings on record: 120 g/10a, 14 days after treatment. A digest of the protocol: as §3
Experiment [12] relates to Echinochloa crus-galli. The description is as above. The settings on record: 120 g/10a, 14 days after treatment. A digest of the protocol: as §3
In experiment [13] the test system is Monochoria vaginalis. Nature of the experiment: Test Example 12: herbicidal effect test by treatment during growing period in paddy field. As to conditions: 120 g/10a; treatment seven days after sowing in flooded paddy pot; assessed 14 days after treatment. A digest of the protocol:
(§4)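 Weed suppression (%) = (1 − treated/untreated mean dry weight) × 100, scored 14 days after treatment with two replicates per plot. Dose 120 g a.i. per 10 are, as diluted emulsifiable concentrate added dropwise to flooded pots (water about 3 cm) 7 days post-sowing, seeds at 0-1 cm.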

Experiment [14] deals with Scirpus juncoides. Described as above. As to conditions: 120 g/10a; treatment seven days after sowing in flooded paddy pot; assessed 14 days after treatment. A digest of the protocol:
as §4

The subject of experiment [15] is Lindernia pyxidaria. The experiment is described as above. As to conditions: 120 g/10a; treatment seven days after sowing in flooded paddy pot; assessed 14 days after treatment. In outline:
as §4

For experiment [16], the system named is Echinochloa crus-galli. Described as above. As to conditions: 120 g/10a; treatment seven days after sowing in flooded paddy pot; assessed 14 days after treatment. A digest of the protocol:
as §4

As to `CC(C)N(C(=O)n1cnn(S(=O)(=O)CCl)c1=O)c1ccc(F)cc1F` [Compound 11-109], the results for the “herbicidal effect, Crabgrass” value in the experiment with crabgrass [1] and with crabgrass [9] were 90% and 100%, respectively. In addition, the entries for the “herbicidal effect, Chenopodium album” value in the experiment on Chenopodium album [2] and with Chenopodium album [10] were 40% and 100%, respectively. Moreover, the results for the “herbicidal effect, Amaranthus viridis” value with Amaranthus viridis [3] and in the experiment with Amaranthus viridis [11] were 40% and 90%, respectively. Besides, the “herbicidal effect, Echinochloa crus-galli” value came out at 90% in the experiment with Echinochloa crus-galli [4] and 100% in the experiment with Echinochloa crus-galli [12]. Besides, the “Weed suppression rate (%) Monochoria vaginalis” value in the experiment with Monochoria vaginalis [5] and in the experiment with Monochoria vaginalis [13] was 90% throughout. The “Weed suppression rate (%) Scirpus juncoides” value with Scirpus juncoides [6] and in the experiment with Scirpus juncoides [14] was 90% in each case. The “Weed suppression rate (%) Lindemia pyxidaria” value in the experiment with Lindernia pyxidaria [7] and in the experiment with Lindernia pyxidaria [15] was 100% each time. The “Weed suppression rate (%) Echinochloa crus-galli” value in the experiment with Echinochloa crus-galli [8] and with Echinochloa crus-galli [16] was 100% throughout.
On to `CCN(CC)C(=O)n1cnn(S(=O)(=O)c2ccc(F)cc2)c1=O` [Compound 11-463], for which the results for the “herbicidal effect, Crabgrass” value with crabgrass [1] and in the experiment on crabgrass [9] were 60% and 90%, respectively. The “herbicidal effect, Chenopodium album” value in the experiment on Chenopodium album [2] is given as 0%; with Chenopodium album [10] it was 100%. Also, the “herbicidal effect, Amaranthus viridis” value with Amaranthus viridis [3] stood at 40%; with Amaranthus viridis [11], 80%. The “herbicidal effect, Echinochloa crus-galli” value with Echinochloa crus-galli [4] is on record as 70%; in the experiment with Echinochloa crus-galli [12], 90%. Besides, the “Weed suppression rate (%) Monochoria vaginalis” value in the experiment with Monochoria vaginalis [5] was determined as 50%; in the experiment with Monochoria vaginalis [13], 80%. Further, the results for the “Weed suppression rate (%) Scirpus juncoides” value in the experiment on Scirpus juncoides [6] and in the experiment with Scirpus juncoides [14] were 40% and 80%, respectively. Moreover, the results for the “Weed suppression rate (%) Lindemia pyxidaria” value in the experiment on Lindernia pyxidaria [7] and in the experiment with Lindernia pyxidaria [15] were 50% and 80%, respectively. Also, the “Weed suppression rate (%) Echinochloa crus-galli” value in the experiment with Echinochloa crus-galli [8] and with Echinochloa crus-galli [16] was 90% in each case.
On to `CC(C)N(C(=O)n1cnn(S(=O)(=O)C(C)C)c1=O)c1c(F)cccc1F` [Compound 11-61], for which the “herbicidal effect, Crabgrass” value with crabgrass [1] and in the experiment on crabgrass [9] was 100% throughout. Moreover, the “herbicidal effect, Chenopodium album” value in the experiment with Chenopodium album [2] amounted to 70%; in the experiment on Chenopodium album [10], 80%. The “herbicidal effect, Amaranthus viridis” value in the experiment with Amaranthus viridis [3] is 70%; in the experiment with Amaranthus viridis [11], 90%. Further, the “herbicidal effect, Echinochloa crus-galli” value in the experiment on Echinochloa crus-galli [4] and with Echinochloa crus-galli [12] was 100% in each case. Also, the “Weed suppression rate (%) Monochoria vaginalis” value in the experiment on Monochoria vaginalis [5] is listed as 80%; with Monochoria vaginalis [13], 100%. The figures for the “Weed suppression rate (%) Scirpus juncoides” value in the experiment with Scirpus juncoides [6] and in the experiment on Scirpus juncoides [14] were 100% and 80%, respectively. The “Weed suppression rate (%) Lindemia pyxidaria” value in the experiment with Lindernia pyxidaria [7] and in the experiment with Lindernia pyxidaria [15] was 100% in each case. Besides, the “Weed suppression rate (%) Echinochloa crus-galli” value in the experiment on Echinochloa crus-galli [8] and with Echinochloa crus-galli [16] was 100% each time.
In the case of `CC(C)N(C(=O)n1cnn(S(=O)(=O)c2ccc(F)cc2)c1=O)c1ccc(F)cc1Cl` [Compound 11-482], the “herbicidal effect, Crabgrass” value with crabgrass [1] and in the experiment with crabgrass [9] was 90% each time. The “herbicidal effect, Chenopodium album” value in the experiment with Chenopodium album [2] and in the experiment with Chenopodium album [10] was 80% throughout. Also, the “herbicidal effect, Amaranthus viridis” value in the experiment with Amaranthus viridis [3] and in the experiment with Amaranthus viridis [11] was 90% throughout. Also, the “herbicidal effect, Echinochloa crus-galli” value with Echinochloa crus-galli [4] and in the experiment on Echinochloa crus-galli [12] was 80% each time. In addition, the “Weed suppression rate (%) Monochoria vaginalis” value in the experiment with Monochoria vaginalis [5] and in the experiment on Monochoria vaginalis [13] was 80% throughout. Besides, the “Weed suppression rate (%) Scirpus juncoides” value with Scirpus juncoides [6] and in the experiment on Scirpus juncoides [14] was 90% each time. Besides, the “Weed suppression rate (%) Lindemia pyxidaria” value in the experiment with Lindernia pyxidaria [7] and in the experiment on Lindernia pyxidaria [15] was 80% each time. The “Weed suppression rate (%) Echinochloa crus-galli” value in the experiment with Echinochloa crus-galli [8] and in the experiment on Echinochloa crus-galli [16] was 90% throughout.
Regarding `CC(C)N(C(=O)n1cnn(S(=O)(=O)C(C)C)c1=O)c1ccc(F)cc1Cl` [Compound 11-66], the “herbicidal effect, Crabgrass” value in the experiment with crabgrass [1] and in the experiment with crabgrass [9] was 90% in each case. Further, the “herbicidal effect, Chenopodium album” value in the experiment on Chenopodium album [2] and in the experiment with Chenopodium album [10] was 80% in each case. The “herbicidal effect, Amaranthus viridis” value in the experiment on Amaranthus viridis [3] and with Amaranthus viridis [11] was 90% throughout. Also, the “herbicidal effect, Echinochloa crus-galli” value with Echinochloa crus-galli [4] and in the experiment with Echinochloa crus-galli [12] was 80% throughout. In addition, the “Weed suppression rate (%) Monochoria vaginalis” value with Monochoria vaginalis [5] and in the experiment with Monochoria vaginalis [13] was 80% throughout. Also, the “Weed suppression rate (%) Scirpus juncoides” value in the experiment with Scirpus juncoides [6] and in the experiment with Scirpus juncoides [14] was 90% each time. For the same compound, the “Weed suppression rate (%) Lindemia pyxidaria” value with Lindernia pyxidaria [7] and with Lindernia pyxidaria [15] was 80% in each case. Further, the “Weed suppression rate (%) Echinochloa crus-galli” value with Echinochloa crus-galli [8] and in the experiment with Echinochloa crus-galli [16] was 90% in each case.
For `CCS(=O)(=O)n1ncn(C(=O)N(c2ccc(F)cc2F)C(C)C)c1=O` [Compound 11-46], the “herbicidal effect, Crabgrass” value with crabgrass [1] and with crabgrass [9] was 100% each time. For the same compound, the “herbicidal effect, Chenopodium album” value in the experiment with Chenopodium album [2] is 90%; with Chenopodium album [10], 100%. The entries for the “herbicidal effect, Amaranthus viridis” value in the experiment on Amaranthus viridis [3] and in the experiment with Amaranthus viridis [11] were 60% and 100%, respectively. Further, the “herbicidal effect, Echinochloa crus-galli” value in the experiment on Echinochloa crus-galli [4] and with Echinochloa crus-galli [12] was 100% throughout. The entries for the “Weed suppression rate (%) Monochoria vaginalis” value in the experiment with Monochoria vaginalis [5] and with Monochoria vaginalis [13] were 100% and 90%, respectively. Further, the “Weed suppression rate (%) Scirpus juncoides” value with Scirpus juncoides [6] and with Scirpus juncoides [14] was 90% each time. For the same compound, the “Weed suppression rate (%) Lindemia pyxidaria” value in the experiment on Lindernia pyxidaria [7] and with Lindernia pyxidaria [15] was 100% in each case. The “Weed suppression rate (%) Echinochloa crus-galli” value in the experiment on Echinochloa crus-galli [8] and in the experiment with Echinochloa crus-galli [16] was 100% throughout.
With `CC(C)N(C(=O)n1cnn(S(=O)(=O)C(C)C)c1=O)c1c(F)cc(F)cc1F` [Compound 11-63], the “herbicidal effect, Crabgrass” value in the experiment with crabgrass [1] and in the experiment on crabgrass [9] was 100% throughout. Also, the entries for the “herbicidal effect, Chenopodium album” value in the experiment on Chenopodium album [2] and in the experiment on Chenopodium album [10] were 70% and 90%, respectively. Moreover, the “herbicidal effect, Amaranthus viridis” value in the experiment on Amaranthus viridis [3] is given as 60%; in the experiment with Amaranthus viridis [11], 90%. In addition, the “herbicidal effect, Echinochloa crus-galli” value with Echinochloa crus-galli [4] and in the experiment on Echinochloa crus-galli [12] was 100% throughout. Moreover, the “Weed suppression rate (%) Monochoria vaginalis” value with Monochoria vaginalis [5] and in the experiment on Monochoria vaginalis [13] was 100% throughout. The “Weed suppression rate (%) Scirpus juncoides” value in the experiment on Scirpus juncoides [6] and in the experiment with Scirpus juncoides [14] was 100% in each case. Also, the “Weed suppression rate (%) Lindemia pyxidaria” value was found to be 100% in the experiment with Lindernia pyxidaria [7] and 80% in the experiment with Lindernia pyxidaria [15]. The “Weed suppression rate (%) Echinochloa crus-galli” value with Echinochloa crus-galli [8] and in the experiment with Echinochloa crus-galli [16] was 100% throughout.
